The numbers were not newly measured in patent publication US8067405B2, “Superoxide dismutase mimics for the treatment of ocular disorders and diseases” (Novartis AG, priority 2002, dated 2011), which cites them from elsewhere.

SMILES strings stand for the structures.

The test system of this data set is diabetogenic T-cell clone. The settings on record: in a cloned cell.

`CCN1C=CC=C/C1=C1/C2=NC(=C(c3cccc[n+]3CC)C3=NC(=C(c4cccc[n+]4CC)c4ccc([n-]4)C(c4cccc[n+]4CC)=C4C=CC1=N4)C=C3)C=C2.[Cl-].[Cl-].[Cl-].[Cl-].[Cl-].[Mn+3]` [AEOL10113]: the onset of diabetes entry is reported as “delay the onset of diabetes”.
